Experimental data taken from ChEMBL document CHEMBL4837230, “Thiophene-2-carboxamide derivatives of anthraquinone: A new potent antitumor chemotype” (Eur J Med Chem, 2021).

Tests used:
K562 [1] = test: Induction of cell cycle arrest in human K562 cells assessed as increase in accumulation at G2/M phase at 2.5 uM after 4 hrs by flow cytometric analysis (reference value: 19.7%); assay type: functional
K562 [2] = test: Induction of apoptosis in human K562 cells assessed as early apoptotic cells after 24 hrs by Annexin V-APC/PI double staining based flow cytometric analysis (reference value: 0.1%); assay type: functional

Work on N[C@H]1CCN(C(=O)c2cc3c(O)c4c(c(O)c3s2)C(=O)c2ccccc2C4=O)C1 yielded an Activity (K562 [1]) of 17.3% and an Activity (K562 [2]) of 0.1%.
